One data set addresses S. aureus DNA gyrase (Staphylococcus aureus, UniProt P0A0K8+P20831). In words: DNA gyrase supercoiling assay. The class given is biochemical. Particulars: do not inhibit.
A further data set addresses T1, E. coli DNA gyrase (Escherichia coli, UniProt P0AES4+P0AES6).
T1 construct: made in house; host or cells: E. coli
In words: DNA gyrase supercoiling assay. It counts as biochemical. On the procedure:
Enzyme activity is measured by a supercoiling assay that monitors the ATP-dependent conversion of relaxed pBR322 DNA to the supercoiled form. Analysis is done by gel electrophoresis through 1% agarose/TBE gel. DNA is visualized with an Alpha Imager 2200 Analysis System and the IC50 determined by nonlinear regression analysis with Graphpad Prism software. E. coli DNA gyrase enzyme subunits, gyrA and gyrB, are purified to homogeneity from over-expression constructs in E. coli.

The target in data set [1] is T2, S. aureus topoisomerase IV (Staphylococcus aureus, UniProt P0C1S7+P0C1U9).
T2 construct: made in house; host or cells: E. coli
T2 sequence (P0C1U9 whole entry): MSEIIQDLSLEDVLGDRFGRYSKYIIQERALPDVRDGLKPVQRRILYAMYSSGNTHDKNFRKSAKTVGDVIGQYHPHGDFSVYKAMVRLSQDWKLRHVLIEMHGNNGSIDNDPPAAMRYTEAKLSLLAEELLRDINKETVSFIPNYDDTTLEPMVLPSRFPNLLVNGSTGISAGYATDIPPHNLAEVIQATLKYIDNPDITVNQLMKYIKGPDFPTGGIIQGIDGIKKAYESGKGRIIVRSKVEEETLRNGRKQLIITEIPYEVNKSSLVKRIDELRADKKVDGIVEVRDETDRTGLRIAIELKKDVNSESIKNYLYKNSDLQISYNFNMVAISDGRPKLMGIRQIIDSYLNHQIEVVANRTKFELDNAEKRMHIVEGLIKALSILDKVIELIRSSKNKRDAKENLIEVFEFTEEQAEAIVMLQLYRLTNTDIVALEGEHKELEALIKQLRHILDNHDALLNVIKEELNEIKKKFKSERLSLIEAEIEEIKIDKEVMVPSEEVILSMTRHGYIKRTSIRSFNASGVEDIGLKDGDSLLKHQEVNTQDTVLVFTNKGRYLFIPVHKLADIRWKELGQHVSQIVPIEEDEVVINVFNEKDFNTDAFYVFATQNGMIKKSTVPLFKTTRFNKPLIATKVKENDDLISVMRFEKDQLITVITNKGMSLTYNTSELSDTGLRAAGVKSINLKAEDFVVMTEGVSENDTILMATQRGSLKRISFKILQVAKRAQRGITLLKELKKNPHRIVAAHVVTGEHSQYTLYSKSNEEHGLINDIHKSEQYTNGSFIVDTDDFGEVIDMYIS
T2 sequence (P0C1S7 whole entry): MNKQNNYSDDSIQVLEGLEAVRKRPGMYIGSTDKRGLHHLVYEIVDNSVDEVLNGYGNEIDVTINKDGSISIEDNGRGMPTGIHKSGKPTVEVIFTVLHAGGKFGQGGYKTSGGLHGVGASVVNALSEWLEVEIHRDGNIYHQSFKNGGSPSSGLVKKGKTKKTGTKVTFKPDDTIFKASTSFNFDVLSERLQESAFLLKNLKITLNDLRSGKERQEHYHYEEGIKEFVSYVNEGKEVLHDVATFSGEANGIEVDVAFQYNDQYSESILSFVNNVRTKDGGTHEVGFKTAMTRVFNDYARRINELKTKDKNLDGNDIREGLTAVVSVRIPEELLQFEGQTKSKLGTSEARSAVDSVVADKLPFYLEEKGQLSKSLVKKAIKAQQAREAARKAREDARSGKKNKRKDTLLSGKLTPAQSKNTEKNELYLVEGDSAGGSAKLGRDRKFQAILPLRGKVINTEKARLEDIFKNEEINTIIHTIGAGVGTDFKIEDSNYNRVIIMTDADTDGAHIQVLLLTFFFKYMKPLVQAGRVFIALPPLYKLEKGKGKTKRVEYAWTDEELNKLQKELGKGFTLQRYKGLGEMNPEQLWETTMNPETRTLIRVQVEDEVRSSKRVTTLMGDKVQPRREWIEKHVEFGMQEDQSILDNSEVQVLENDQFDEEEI
Briefly: Topoisomerase IV decatenation assay. The class given is biochemical. The settings on record: decatenation of kinetoplast DNA; read-out: inhibition of S. aureus topoisomerase IV activity IC50. As to the method: Enzyme activity is measured by a decatenation assay that monitors the ATP-dependent unlinking of DNA minicircles from kinetoplast DNA. Analysis is done by gel electrophoresis through 1% agarose/TBE gel. DNA is visualized with an Alpha Imager 2200 Analysis System and the IC50 determined by nonlinear regression analysis with Graphpad Prism software. S. aureus topoismerase IV enzyme subunits, grlA and grlB, are purified to homogeneity from over-expression plasmids in E. coli.

In a further data set the test system is S. aureus ATCC 29213. In words: Minimum inhibitory concentration (MIC) assay, broth microdilution. The class given is cell-based. The settings on record: Staphylococcus aureus, ATCC29213. As to the method: (§1) The antimicrobial activity of the compounds of the invention may be evaluated by a number of methods, including the following visual minimum inhibitory concentration (MIC) assay. This assay determines the minimum concentration of compound required to inhibit growth of a bacterial strain.
(§2) Whole-cell antibacterial activity is determined by broth microdilution using conditions recommended by the National Committee for Clinical Laboratory Standards (NCCLS).
(§3) Test compounds are dissolved in DMSO and diluted 1:50 in Mueller-Hinton II broth (Becton-Dickinson) to produce a 256 μg/ml stock solution. In a 96-well microtiter plate, the compound solution is serially two-fold diluted in Mueller-Hinton II broth. After the compounds are diluted, a […] aliquot of the test organism (˜1×10^6 cfu/mL) is added to each well of the microtiter plate. The final test concentrations range from 0.125-128 μg/mL. Inoculated plates are incubated in ambient air at 37° C. for 18 to 24 hours. The organisms selected for testing included laboratory strains S. aureus ATCC 29213 and E. coli ATCC 25922 (strains purchased from American Type Culture Collection, Manassas, Va.). The minimum inhibitory concentration (MIC) was determined as the lowest concentration of compound that inhibited visible growth of the test organism.
For orientation: In broth dilution the organism is exposed to a series of concentrations in liquid medium.

For the next data set, the system named is E. coli ATCC 25922. The description is as above. It counts as cell-based. Particulars: Escherichia coli, ATCC25922. As to the method: as §1, §2, §3
In data set [2] the test system is HEP 2 (laryngeal carcinoma). Particulars: HEP 2 cells; positive control, known CC50; cited from earlier work.
The subject of data set [3] is CHO (Chinese hamster ovary). Particulars: CHO cells; positive control, known CC50; cited from earlier work.

The source of these data is US7659399B2, “1-thia-2,4a-diaza-cyclopenta[b]napththalene-3,4-diones and related compounds as anti-infective agents” (Achillion Pharmaceuticals, Inc., priority 2005, dated 2010).

Usually melting point stands for the temperature of the solid-liquid transition. The IC50 is the point on the concentration scale where inhibition reaches its midpoint. The term MIC denotes the least concentration at which growth counts as inhibited. Higher therefore signals weaker potency. One may read the CC50 as the concentration giving 50% cytotoxicity.

SMILES strings stand for the structures. Structures can show the parent of a compound that is named as a salt. Some results are limits rather than exact numbers.

Sequence of S. aureus DNA gyrase (P20831 whole entry): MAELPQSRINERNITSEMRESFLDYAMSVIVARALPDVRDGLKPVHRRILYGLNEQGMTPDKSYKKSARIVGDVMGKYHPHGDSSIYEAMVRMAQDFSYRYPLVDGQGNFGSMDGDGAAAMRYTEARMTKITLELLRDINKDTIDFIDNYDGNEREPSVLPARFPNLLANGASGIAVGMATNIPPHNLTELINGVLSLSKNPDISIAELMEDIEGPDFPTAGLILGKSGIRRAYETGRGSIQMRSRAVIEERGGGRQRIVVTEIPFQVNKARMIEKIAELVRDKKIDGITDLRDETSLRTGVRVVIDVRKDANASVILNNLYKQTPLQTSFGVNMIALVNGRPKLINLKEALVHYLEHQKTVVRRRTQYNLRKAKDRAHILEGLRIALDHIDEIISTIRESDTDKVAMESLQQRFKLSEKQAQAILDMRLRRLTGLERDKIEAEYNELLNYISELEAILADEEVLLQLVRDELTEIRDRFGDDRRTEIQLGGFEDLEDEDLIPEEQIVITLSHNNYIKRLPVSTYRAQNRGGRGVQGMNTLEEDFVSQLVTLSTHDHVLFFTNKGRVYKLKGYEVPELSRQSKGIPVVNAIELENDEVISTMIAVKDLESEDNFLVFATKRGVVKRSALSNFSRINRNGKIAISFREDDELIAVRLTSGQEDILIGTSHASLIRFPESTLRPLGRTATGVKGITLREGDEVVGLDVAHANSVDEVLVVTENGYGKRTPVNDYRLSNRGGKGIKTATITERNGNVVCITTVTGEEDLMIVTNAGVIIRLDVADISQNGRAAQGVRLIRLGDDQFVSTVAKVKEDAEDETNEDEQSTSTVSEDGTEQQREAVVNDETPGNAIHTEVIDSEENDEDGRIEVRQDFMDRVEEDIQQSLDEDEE
Sequence of S. aureus DNA gyrase (P0A0K8 whole entry): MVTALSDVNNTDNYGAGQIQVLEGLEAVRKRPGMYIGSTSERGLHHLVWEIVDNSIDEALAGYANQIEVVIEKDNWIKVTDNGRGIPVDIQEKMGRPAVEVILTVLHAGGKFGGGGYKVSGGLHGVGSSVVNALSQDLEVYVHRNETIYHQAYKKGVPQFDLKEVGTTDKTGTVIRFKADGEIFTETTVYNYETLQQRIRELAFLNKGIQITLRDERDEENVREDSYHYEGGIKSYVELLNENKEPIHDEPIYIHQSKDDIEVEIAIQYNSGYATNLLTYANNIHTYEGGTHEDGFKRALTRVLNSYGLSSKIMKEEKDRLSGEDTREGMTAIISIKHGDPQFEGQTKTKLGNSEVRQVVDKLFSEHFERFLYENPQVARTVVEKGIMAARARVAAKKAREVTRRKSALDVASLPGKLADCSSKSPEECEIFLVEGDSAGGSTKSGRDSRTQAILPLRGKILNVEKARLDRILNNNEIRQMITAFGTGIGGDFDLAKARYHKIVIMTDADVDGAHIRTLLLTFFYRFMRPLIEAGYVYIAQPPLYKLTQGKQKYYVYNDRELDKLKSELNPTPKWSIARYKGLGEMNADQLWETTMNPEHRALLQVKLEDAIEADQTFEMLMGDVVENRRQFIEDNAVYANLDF
T1 sequence (P0AES4 whole entry, one chain of several): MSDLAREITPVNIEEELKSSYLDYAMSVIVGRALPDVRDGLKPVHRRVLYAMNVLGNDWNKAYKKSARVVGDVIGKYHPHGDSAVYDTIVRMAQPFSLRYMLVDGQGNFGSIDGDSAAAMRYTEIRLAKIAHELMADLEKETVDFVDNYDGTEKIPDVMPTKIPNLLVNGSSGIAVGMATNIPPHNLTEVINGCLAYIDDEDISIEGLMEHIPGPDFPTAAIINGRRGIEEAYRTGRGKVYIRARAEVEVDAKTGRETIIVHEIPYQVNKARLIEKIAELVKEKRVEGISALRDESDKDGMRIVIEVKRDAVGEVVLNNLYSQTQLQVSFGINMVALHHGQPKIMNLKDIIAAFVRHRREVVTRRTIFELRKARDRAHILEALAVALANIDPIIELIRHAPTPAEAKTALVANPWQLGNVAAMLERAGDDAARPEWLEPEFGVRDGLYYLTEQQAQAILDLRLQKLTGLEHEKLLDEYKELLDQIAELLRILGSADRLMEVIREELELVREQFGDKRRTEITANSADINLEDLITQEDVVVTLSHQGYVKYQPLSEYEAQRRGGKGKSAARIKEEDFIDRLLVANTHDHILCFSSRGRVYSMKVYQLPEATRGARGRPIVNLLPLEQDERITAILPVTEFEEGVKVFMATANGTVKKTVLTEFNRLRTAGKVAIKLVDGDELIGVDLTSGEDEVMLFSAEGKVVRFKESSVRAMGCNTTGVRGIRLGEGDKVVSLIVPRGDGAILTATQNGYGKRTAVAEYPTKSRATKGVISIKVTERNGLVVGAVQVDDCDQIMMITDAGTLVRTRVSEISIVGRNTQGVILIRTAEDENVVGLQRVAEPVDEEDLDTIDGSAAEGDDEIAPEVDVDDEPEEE

For the compound `CCc1c2s[nH]c(=O)c2c(=O)n2ccc(-c3ccncc3)cc12` (as salt: hydrochloride) [Compound 8, 9-Ethyl-7-pyridin-4-yl-1-thia-2,4a-diaza-cyclopenta[b]naphthalene-3,4-dione hydrochloride], the melting point was 289 to 290 °C (dec.).

On to `CCc1c2s[nH]c(=O)c2c(=O)n2ccc(-c3cc(C)nc(C)c3)cc12` (as salt: hydrochloride) [Compound 9, 7-(2,6-Dimethylpyridin-4-yl)-9-ethyl-1-thia-2,4a-diaza-cyclopenta[b]naphthalene-3,4-dione hydrochloride], for which the melting point was 279 to 280 °C (dec.).

For `CCc1c2s[nH]c(=O)c2c(=O)n2ccc(-c3ccncc3)cc12` [Compound 8, 9-Ethyl-7-pyridin-4-yl-1-thia-2,4a-diaza-cyclopenta[b]naphthalene-3,4-dione hydrochloride], the results for the IC50 (against S. aureus DNA gyrase; against E. coli DNA gyrase; in data set [1]) were more than 200 µM, less than 1 µM and less than 10 µM, respectively. Besides, the MIC with S. aureus ATCC 29213 and in the data set on E. coli ATCC 25922 was 10 µg/mL throughout.

Regarding `CCc1c2s[nH]c(=O)c2c(=O)n2ccc(-c3cc(C)nc(C)c3)cc12` [Compound 9, 7-(2,6-Dimethylpyridin-4-yl)-9-ethyl-1-thia-2,4a-diaza-cyclopenta[b]naphthalene-3,4-dione hydrochloride], the IC50 was more than 200 µM against S. aureus DNA gyrase, less than 1 µM on E. coli DNA gyrase and less than 10 µM in data set [1]. Besides, the MIC with S. aureus ATCC 29213 and against E. coli ATCC 25922 was 10 µg/mL in each case.

Consider `CC(C)(C)c1ccc(C(O)CCCN2CCC(C(O)(c3ccccc3)c3ccccc3)CC2)cc1` (centres unmarked) [Terfenadine], for which the CC50 was 3 to 5 µM in data set [2] and 4.3 to 6.5 µM in data set [3].
